Results reported in the NIST ThermoML archive (doi:10.1016/j.fluid.2010.08.004).
Numbers after ± are expanded uncertainties.

Assay: mn = molality of the nth substance listed, in mol/kg
Conditions: 101.3 kPa, Liquid; for speed of sound: Single path-length method; for mass density: Vibrating tube method

CCCCCCCn1cc[n+](C)c1.[Br-] [1-heptyl-3-methylimidazolium bromide] + O
Conditions | mass density, 288.15 K [kg/m3] | mass density, 293.15 K [kg/m3] | mass density, 298.15 K [kg/m3] | mass density, 303.15 K [kg/m3] | mass density, 308.15 K [kg/m3] | speed of sound, 288.15 K [m/s] | speed of sound, 293.15 K [m/s] | speed of sound, 298.15 K [m/s] | speed of sound, 303.15 K [m/s] | speed of sound, 308.15 K [m/s]
m1 = 0.0096 | 999.568 ± 0.041 | 998.662 ± 0.045 | 997.491 ± 0.044 | 996.083 ± 0.044 | 994.457 ± 0.042 | 1468.2 ± 0.45 | 1484.2 ± 0.46 | 1498.3 ± 0.46 | 1510.5 ± 0.46 | 1521.1 ± 0.45
m1 = 0.0113 | 999.656 ± 0.041 | 998.746 ± 0.041 | 997.574 ± 0.041 | 996.165 ± 0.042 | 994.539 ± 0.042 | 1468.5 ± 0.45 | 1484.4 ± 0.45 | 1498.5 ± 0.45 | 1510.8 ± 0.45 | 1521.3 ± 0.45
m1 = 0.0151 | 999.839 ± 0.041 | 998.926 ± 0.041 | 997.75 ± 0.041 | 996.337 ± 0.042 | 994.708 ± 0.042 | 1469.1 ± 0.45 | 1485 ± 0.45 | 1499 ± 0.45 | 1511.2 ± 0.45 | 1521.7 ± 0.45
m1 = 0.0226 | 1000.2 ± 0.041 | 999.279 ± 0.041 | 998.097 ± 0.041 | 996.677 ± 0.042 | 995.043 ± 0.042 | 1470.4 ± 0.45 | 1486.1 ± 0.45 | 1500.1 ± 0.45 | 1512.2 ± 0.45 | 1522.6 ± 0.45
m1 = 0.0306 | 1000.59 ± 0.041 | 999.656 ± 0.041 | 998.464 ± 0.042 | 997.04 ± 0.042 | 995.398 ± 0.043 | 1471.8 ± 0.46 | 1487.3 ± 0.45 | 1501.2 ± 0.45 | 1513.1 ± 0.45 | 1523.5 ± 0.45
m1 = 0.0384 | 1000.96 ± 0.042 | 1000.03 ± 0.041 | 998.827 ± 0.042 | 997.395 ± 0.042 | 995.747 ± 0.043 | 1472.9 ± 0.46 | 1488.5 ± 0.46 | 1502.2 ± 0.46 | 1514.1 ± 0.46 | 1524.4 ± 0.46
m1 = 0.0571 | 1001.85 ± 0.043 | 1000.9 ± 0.042 | 999.682 ± 0.042 | 998.23 ± 0.043 | 996.569 ± 0.043 | 1476.1 ± 0.46 | 1491.2 ± 0.46 | 1504.7 ± 0.46 | 1516.3 ± 0.46 | 1526.4 ± 0.46
m1 = 0.0778 | 1002.84 ± 0.044 | 1001.86 ± 0.044 | 1000.62 ± 0.043 | 999.158 ± 0.043 | 997.477 ± 0.044 | 1479.3 ± 0.47 | 1494.3 ± 0.47 | 1507.5 ± 0.47 | 1518.9 ± 0.47 | 1528.6 ± 0.46
m1 = 0.097 | 1003.74 ± 0.045 | 1002.74 ± 0.045 | 1001.49 ± 0.044 | 1000.01 ± 0.044 | 998.309 ± 0.044 | 1482.3 ± 0.47 | 1497 ± 0.47 | 1509.9 ± 0.47 | 1521.1 ± 0.47 | 1530.7 ± 0.47
m1 = 0.1158 | 1004.62 ± 0.046 | 1003.6 ± 0.046 | 1002.33 ± 0.045 | 1000.83 ± 0.045 | 999.119 ± 0.045 | 1485.2 ± 0.47 | 1499.7 ± 0.47 | 1512.3 ± 0.47 | 1523.3 ± 0.47 | 1532.6 ± 0.47
m1 = 0.1383 | 1005.67 ± 0.048 | 1004.63 ± 0.047 | 1003.34 ± 0.047 | 1001.81 ± 0.046 | 1000.08 ± 0.045 | 1488.7 ± 0.48 | 1502.8 ± 0.48 | 1515.2 ± 0.48 | 1525.8 ± 0.48 | 1534.9 ± 0.48
m1 = 0.1566 | 1006.51 ± 0.049 | 1005.45 ± 0.048 | 1004.14 ± 0.048 | 1002.6 ± 0.047 | 1000.86 ± 0.046 | 1491.5 ± 0.48 | 1505.3 ± 0.48 | 1517.4 ± 0.48 | 1527.9 ± 0.48 | 1536.7 ± 0.48
m1 = 0.174 | 1007.32 ± 0.05 | 1006.24 ± 0.049 | 1004.91 ± 0.049 | 1003.35 ± 0.048 | 1001.6 ± 0.048 | 1494 ± 0.49 | 1507.6 ± 0.49 | 1519.5 ± 0.49 | 1529.8 ± 0.49 | 1538.4 ± 0.49
